{
  "source": "paper PMC12454493",
  "about": "“Insight on novel sulfamoylphenyl pyrazole derivatives as anticancer carbonic anhydrase inhibitors” (Molecular Diversity, 2024)",
  "key": {"M14": {"system": "M14", "assay": "NCI-60 one-dose SRB screen (Melanoma)", "format": "cell-based", "conditions": "Homo sapiens, single dose 10 µM, 48 h, read-out: Growth inhibition percent (GI %)", "protocol": "(§1) The National Cancer Institute (NCI) Developmental Therapeutic Program (www.dtp.nci.nih.gov) selected the 20 novel synthesized compounds 4a-e, 5a-e, 6a-c, 9a-e, 10 and 11 to test for their anticancer activity at a single dose of 10 µM using SRB assay. […] Supplementary Data S3; Table S1 presents the detailed screening results of the most promising compounds. The preliminary screening’s detailed results for the remaining compounds are elucidated in the (Supplementary Data S3; Table S2).\n(§2) The guidelines of the Drug Evaluation Branch’s protocol at the NCI in Bethesda served as the basis for the in vitro anticancer screening assays. at one dose 10 µM against a panel of 60 cancer cell lines. The human tumor cell lines used belonged to nine panels: leukemia, melanoma, lung, colon, CNS, ovarian, renal, prostate and breast cancers using the sulforhodamine B (SRB) assay in a 48 h drug exposure protocol."}, "MALME-3M": {"system": "MALME-3M", "assay": "NCI-60 one-dose SRB screen (Melanoma)", "format": "cell-based", "conditions": "Homo sapiens, single dose 10 µM, 48 h, read-out: Growth inhibition percent (GI %)", "protocol": "as §1, §2"}, "MDA-MB-435": {"system": "MDA-MB-435", "assay": "NCI-60 one-dose SRB screen (Melanoma)", "format": "cell-based", "conditions": "Homo sapiens, single dose 10 µM, 48 h, read-out: Growth inhibition percent (GI %)", "protocol": "as §1, §2"}, "SK-MEL-28": {"system": "SK-MEL-28", "assay": "NCI-60 one-dose SRB screen (Melanoma)", "format": "cell-based", "conditions": "Homo sapiens, single dose 10 µM, 48 h, read-out: Growth inhibition percent (GI %)", "protocol": "as §1, §2"}, "SK-MEL-5": {"system": "SK-MEL-5", "assay": "NCI-60 one-dose SRB screen (Melanoma)", "format": "cell-based", "conditions": "Homo sapiens, single dose 10 µM, 48 h, read-out: Growth inhibition percent (GI %)", "protocol": "as §1, §2"}, "UACC-257": {"system": "UACC-257", "assay": "NCI-60 one-dose SRB screen (Melanoma)", "format": "cell-based", "conditions": "Homo sapiens, single dose 10 µM, 48 h, read-out: Growth inhibition percent (GI %)", "protocol": "as §1, §2"}, "UACC-62": {"system": "UACC-62", "assay": "NCI-60 one-dose SRB screen (Melanoma)", "format": "cell-based", "conditions": "Homo sapiens, single dose 10 µM, 48 h, read-out: Growth inhibition percent (GI %)", "protocol": "as §1, §2"}, "IGROV1": {"system": "IGROV1", "assay": "NCI-60 one-dose SRB screen (Ovarian cancer)", "format": "cell-based", "conditions": "Homo sapiens, IGROV-1, single dose 10 µM, 48 h, read-out: Growth inhibition percent (GI %)", "protocol": "as §1, §2"}, "OVCAR-3": {"system": "OVCAR-3", "assay": "NCI-60 one-dose SRB screen (Ovarian cancer)", "format": "cell-based", "conditions": "Homo sapiens, single dose 10 µM, 48 h, read-out: Growth inhibition percent (GI %)", "protocol": "as §1, §2"}, "OVCAR-4": {"system": "OVCAR-4", "assay": "NCI-60 one-dose SRB screen (Ovarian cancer)", "format": "cell-based", "conditions": "Homo sapiens, single dose 10 µM, 48 h, read-out: Growth inhibition percent (GI %)", "protocol": "as §1, §2"}, "OVCAR-5": {"system": "OVCAR-5", "assay": "NCI-60 one-dose SRB screen (Ovarian cancer)", "format": "cell-based", "conditions": "Homo sapiens, single dose 10 µM, 48 h, read-out: Growth inhibition percent (GI %)", "protocol": "as §1, §2"}, "OVCAR-8": {"system": "OVCAR-8", "assay": "NCI-60 one-dose SRB screen (Ovarian cancer)", "format": "cell-based", "conditions": "Homo sapiens, single dose 10 µM, 48 h, read-out: Growth inhibition percent (GI %)", "protocol": "as §1, §2"}, "SK-OV-3": {"system": "SK-OV-3", "assay": "NCI-60 one-dose SRB screen (Ovarian cancer)", "format": "cell-based", "conditions": "Homo sapiens, single dose 10 µM, 48 h, read-out: Growth inhibition percent (GI %)", "protocol": "as §1, §2"}, "786-0": {"system": "786-0", "assay": "NCI-60 one-dose SRB screen (Renal Cancer)", "format": "cell-based", "conditions": "Homo sapiens, single dose 10 µM, 48 h, read-out: Growth inhibition percent (GI %)", "protocol": "as §1, §2"}, "A498": {"system": "A498", "assay": "NCI-60 one-dose SRB screen (Renal Cancer)", "format": "cell-based", "conditions": "Homo sapiens, single dose 10 µM, 48 h, read-out: Growth inhibition percent (GI %)", "protocol": "as §1, §2"}, "ACHN": {"system": "ACHN", "assay": "NCI-60 one-dose SRB screen (Renal Cancer)", "format": "cell-based", "conditions": "Homo sapiens, single dose 10 µM, 48 h, read-out: Growth inhibition percent (GI %)", "protocol": "as §1, §2"}, "CAKI-1": {"system": "CAKI-1", "assay": "NCI-60 one-dose SRB screen (Renal Cancer)", "format": "cell-based", "conditions": "Homo sapiens, single dose 10 µM, 48 h, read-out: Growth inhibition percent (GI %)", "protocol": "as §1, §2"}, "RXF 393": {"system": "RXF 393", "assay": "NCI-60 one-dose SRB screen (Renal Cancer)", "format": "cell-based", "conditions": "Homo sapiens, single dose 10 µM, 48 h, read-out: Growth inhibition percent (GI %)", "protocol": "as §1, §2"}, "SN12C": {"system": "SN12C", "assay": "NCI-60 one-dose SRB screen (Renal Cancer)", "format": "cell-based", "conditions": "Homo sapiens, single dose 10 µM, 48 h, read-out: Growth inhibition percent (GI %)", "protocol": "as §1, §2"}, "TK-10": {"system": "TK-10", "assay": "NCI-60 one-dose SRB screen (Renal Cancer)", "format": "cell-based", "conditions": "Homo sapiens, single dose 10 µM, 48 h, read-out: Growth inhibition percent (GI %)", "protocol": "as §1, §2"}, "UO-31": {"system": "UO-31", "assay": "NCI-60 one-dose SRB screen (Renal Cancer)", "format": "cell-based", "conditions": "Homo sapiens, single dose 10 µM, 48 h, read-out: Growth inhibition percent (GI %)", "protocol": "as §1, §2"}, "DU-145": {"system": "DU-145", "assay": "NCI-60 one-dose SRB screen (Prostate Cancer)", "format": "cell-based", "conditions": "Homo sapiens, single dose 10 µM, 48 h, read-out: Growth inhibition percent (GI %)", "protocol": "as §1, §2"}, "PC-3": {"system": "PC-3", "assay": "NCI-60 one-dose SRB screen (Prostate Cancer)", "format": "cell-based", "conditions": "Homo sapiens, single dose 10 µM, 48 h, read-out: Growth inhibition percent (GI %)", "protocol": "as §1, §2"}, "BT-549": {"system": "BT-549", "assay": "NCI-60 one-dose SRB screen (Breast Cancer)", "format": "cell-based", "conditions": "Homo sapiens, single dose 10 µM, 48 h, read-out: Growth inhibition percent (GI %)", "protocol": "as §1, §2"}, "HS 578T": {"system": "HS 578T", "assay": "NCI-60 one-dose SRB screen (Breast Cancer)", "format": "cell-based", "conditions": "Homo sapiens, single dose 10 µM, 48 h, read-out: Growth inhibition percent (GI %)", "protocol": "as §1, §2"}, "MCF-7": {"system": "MCF-7", "assay": "NCI-60 one-dose SRB screen (Breast Cancer)", "format": "cell-based", "conditions": "Homo sapiens, MCF7, single dose 10 µM, 48 h, read-out: Growth inhibition percent (GI %)", "protocol": "as §1, §2"}, "MDA-MB-231/ATCC": {"system": "MDA-MB-231/ATCC", "assay": "NCI-60 one-dose SRB screen (Breast Cancer)", "format": "cell-based", "conditions": "Homo sapiens, single dose 10 µM, 48 h, read-out: Growth inhibition percent (GI %)", "protocol": "as §1, §2"}, "MDA-MB-468": {"system": "MDA-MB-468", "assay": "NCI-60 one-dose SRB screen (Breast Cancer)", "format": "cell-based", "conditions": "Homo sapiens, single dose 10 µM, 48 h, read-out: Growth inhibition percent (GI %)", "protocol": "as §1, §2"}, "T-47D": {"system": "T-47D", "assay": "NCI-60 one-dose SRB screen (Breast Cancer)", "format": "cell-based", "conditions": "Homo sapiens, T47D, single dose 10 µM, 48 h, read-out: Growth inhibition percent (GI %)", "protocol": "as §1, §2"}, "hCA XII": {"target": "hCA XII (Homo sapiens, UniProt O43570)", "sequence (O43570 25-354)": "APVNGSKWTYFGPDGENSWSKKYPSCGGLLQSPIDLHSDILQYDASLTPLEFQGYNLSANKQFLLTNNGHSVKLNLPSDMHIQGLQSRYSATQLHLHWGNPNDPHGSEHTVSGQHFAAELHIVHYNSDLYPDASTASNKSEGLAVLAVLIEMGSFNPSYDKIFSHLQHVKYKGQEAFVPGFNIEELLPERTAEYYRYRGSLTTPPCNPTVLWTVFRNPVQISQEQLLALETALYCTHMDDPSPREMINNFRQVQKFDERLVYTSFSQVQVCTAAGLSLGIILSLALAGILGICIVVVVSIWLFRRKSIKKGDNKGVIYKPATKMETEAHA", "assay": "CA inhibitory activity, spectrophotometric p-NPA assay", "format": "biochemical", "conditions": "p-NPA substrate, pH 7.5, 25 °C, triplicate; read-out: IC50 (µM) ± SD hCA XII"}},
  "note": "Where “and” joins values, the source holds several entries; their conditions need not be identical. Identical values can stand only once.",
  "data": [
    {"molecule": "NS(=O)(=O)c1ccc(NC(=O)COC(=O)c2cn(-c3ccc(S(N)(=O)=O)cc3)nc2-c2ccccc2)cc1", "note": "[Compound 4a, 2-Oxo-2-[(4-sulfamoylphenyl)amino] ethyl 3-phenyl-1-(4-sulfamoylphenyl)-1H-pyrazole-4-carboxylate]", "values": [
      {"measurement": "inhibition at 10 µM", "setting": "M14", "result": 23.2, "unit": "%"},
      {"measurement": "inhibition at 10 µM", "setting": "MALME-3M", "result": 8.55, "unit": "%"},
      {"measurement": "inhibition at 10 µM", "setting": "MDA-MB-435", "result": "< 5", "unit": "%"},
      {"measurement": "inhibition at 10 µM", "setting": "SK-MEL-28", "result": "< 5", "unit": "%"},
      {"measurement": "inhibition at 10 µM", "setting": "SK-MEL-5", "result": "< 5", "unit": "%"},
      {"measurement": "inhibition at 10 µM", "setting": "UACC-257", "result": "< 5", "unit": "%"},
      {"measurement": "inhibition at 10 µM", "setting": "UACC-62", "result": "< 5", "unit": "%"},
      {"measurement": "inhibition at 10 µM", "setting": "IGROV1", "result": "< 5", "unit": "%"},
      {"measurement": "inhibition at 10 µM", "setting": "OVCAR-3", "result": "< 5", "unit": "%"},
      {"measurement": "inhibition at 10 µM", "setting": "OVCAR-4", "result": "< 5", "unit": "%"},
      {"measurement": "inhibition at 10 µM", "setting": "OVCAR-5", "result": "< 5", "unit": "%"},
      {"measurement": "inhibition at 10 µM", "setting": "OVCAR-8", "result": "< 5", "unit": "%"},
      {"measurement": "inhibition at 10 µM", "setting": "SK-OV-3", "result": "< 5", "unit": "%"},
      {"measurement": "inhibition at 10 µM", "setting": "786-0", "result": 31.2, "unit": "%"},
      {"measurement": "inhibition at 10 µM", "setting": "A498", "result": "< 5", "unit": "%"},
      {"measurement": "inhibition at 10 µM", "setting": "ACHN", "result": "< 5", "unit": "%"},
      {"measurement": "inhibition at 10 µM", "setting": "CAKI-1", "result": 11.6, "unit": "%"},
      {"measurement": "inhibition at 10 µM", "setting": "RXF 393", "result": "< 5", "unit": "%"},
      {"measurement": "inhibition at 10 µM", "setting": "SN12C", "result": "< 5", "unit": "%"},
      {"measurement": "inhibition at 10 µM", "setting": "TK-10", "result": "< 5", "unit": "%"},
      {"measurement": "inhibition at 10 µM", "setting": "UO-31", "result": 15, "unit": "%"},
      {"measurement": "inhibition at 10 µM", "setting": "DU-145", "result": "< 5", "unit": "%"},
      {"measurement": "inhibition at 10 µM", "setting": "PC-3", "result": "< 5", "unit": "%"},
      {"measurement": "inhibition at 10 µM", "setting": "BT-549", "result": 43.4, "unit": "%"},
      {"measurement": "inhibition at 10 µM", "setting": "HS 578T", "result": "< 5", "unit": "%"},
      {"measurement": "inhibition at 10 µM", "setting": "MCF-7", "result": "< 5", "unit": "%"},
      {"measurement": "inhibition at 10 µM", "setting": "MDA-MB-231/ATCC", "result": 10.5, "unit": "%"},
      {"measurement": "inhibition at 10 µM", "setting": "MDA-MB-468", "result": "< 5", "unit": "%"},
      {"measurement": "inhibition at 10 µM", "setting": "T-47D", "result": "< 5", "unit": "%"},
      {"measurement": "IC50", "setting": "hCA XII", "result": "0.22 µM and 0.226 µM"}
    ]}
  ]
}
